Experimental data: paper PMC3871601, “Potential Cooperations between Odorant-Binding Proteins of the Scarab Beetle Holotrichia oblita Faldermann (Coleoptera: Scarabaeidae)” (PLoS ONE, 2013)
Where two headings read alike, the source gives them in different places.

Key:
HoblOBP3 = HoblOBP3 (Holotrichia oblita, UniProt G9BWQ7); assay: biochemical; assay type: binding
Protocol: (§1) N-phenyl-1-naphthylamine (1-NPN) was selected as a probe to measure the affinity of the 1-NPN fluorescent ligand to proteins. A 1-cm light path quartz cuvette was used, and the fluorescence spectra were recorded on a Lengguang 970 CRT spectrofluorimeter (Shanghai Jingmi, China) at room temperature in a right angle configuration. The parameter selection was such that the slit widths for both excitation and emission were 10 nm. 1-NPN was excited at 337 nm and the emission spectra were recorded between 350 and 550 nm. Spectra were recorded using high-speed scanning.
(§2) The 2 µM protein solution was dissolved in 50 mM Tris-HCl buffer with pH 7.4, and the ligands were dissolved in chromatographically pure methanol as a 1 mM stock solution. 1-NPN was dissolved in chromatographically pure methanol as a 1 mM stock solution.
(§3) To determine the dissociation constants, the intensity values corresponding to the maximum fluorescence emission were plotted against free ligand concentrations. Assuming that the protein was 100% active and that the stoichiometric ratio between the protein and ligand was 1:1 at saturation, the bound ligand was determined from the fluorescence intensity values. The curves were then linearized using Scatchard plots. The K1-NPN values were estimated using GraphPad Prism 5 Software by nonlinear regression for a unique binding site. The dissociation constants of the competitors (Ki) were calculated from the corresponding IC50 values using the following equation: Ki = [IC50]/1+[1-NPN]/K1-NPN. […] [1-NPN] represented the free concentration of 1-NPN, and K1-NPN represented the dissociation constant of the complex protein/1-NPN [76].

HoblOBP4 = HoblOBP4 (Holotrichia oblita, UniProt G9BWQ8); assay: biochemical; assay type: binding
Sequence of HoblOBP4 (G9BWQ8 entry or part of it): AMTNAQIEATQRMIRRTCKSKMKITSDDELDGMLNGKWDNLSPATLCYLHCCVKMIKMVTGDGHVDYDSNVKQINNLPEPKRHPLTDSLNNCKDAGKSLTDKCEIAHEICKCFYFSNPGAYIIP
Protocol: as §1, §2, §3

[1] = HoblOBP3, dash = IC50 exceeded 50 µM, read-out: IC50 (dash)
[2] = HoblOBP3, dash = ligand whose IC50 exceeded 50 µM, Ki not given, read-out: Ki (dash)
[3] = pH 7.4, HoblOBP3, at the ligand concentration 24 µM, protein and 1-NPN both 2 µM, read-out: Int (fluorescence intensity as percent of the initial fluorescence)
[4] = HoblOBP4, dash = IC50 exceeded 50 µM, read-out: IC50 (dash)
[5] = HoblOBP4, dash = ligand whose IC50 exceeded 50 µM, Ki not given, read-out: Ki (dash)
[6] = pH 7.4, HoblOBP4, at the ligand concentration 24 µM, protein and 1-NPN both 2 µM, read-out: Int (fluorescence intensity as percent of the initial fluorescence)
[7] = HoblOBP4, calculated from IC50 and K1-NPN, read-out: Ki
[8] = HoblOBP4, protein and 1-NPN both 2 µM, ligand titrated 2–50 µM, read-out: IC50 (concentration of ligand halving the initial fluorescence intensity)
[9] = pH 7.4, read-out: Int (fluorescence intensity as percent of the initial fluorescence)
[10] = HoblOBP3, at the ligand concentration 24 µM, protein and 1-NPN both 2 µM
[11] = HoblOBP4, at the ligand concentration 24 µM, protein and 1-NPN both 2 µM

Sequence of HoblOBP3 (G9BWQ7 entry or part of it): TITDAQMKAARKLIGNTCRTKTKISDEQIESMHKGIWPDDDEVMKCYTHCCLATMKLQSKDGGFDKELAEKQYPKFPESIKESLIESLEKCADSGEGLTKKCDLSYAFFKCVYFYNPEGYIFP

| SMILES | IC50 (HoblOBP3; [1]) | Ki (HoblOBP3; [2]) | activity at 24 µM (HoblOBP3; [3]) | activity at 24 µM (HoblOBP4; [6]) | Ki (HoblOBP4; [7]) | IC50 (HoblOBP4; [8]) | IC50 (HoblOBP3) | Ki (HoblOBP3) | IC50 (HoblOBP4) | Ki (HoblOBP4) | further results |
| --- | --- | --- | --- | --- | --- | --- | --- | --- | --- | --- | --- |
| CCCCCCCCCC=O [1-Decanal] | > 50 µM | > 50 µM | 86% | 68% | – | – | – | – | – | – | IC50 (HoblOBP4; [4]): > 50 µM; Ki (HoblOBP4; [5]): > 50 µM |
| CCCCCCCO [1-Heptanol] | > 50 µM | > 50 µM | 70% | 46% | 15.4 µM | 21 µM | – | – | – | – | – |
| CCCCCC=O [1-Hexanal] | – | – | 68% | 42% | – | – | > 50 µM | > 50 µM | 15 µM | 11 µM | – |
| CCCCCCO [1-Hexanol] | > 50 µM | > 50 µM | 91% | 45% | 8.8 µM | 12 µM | – | – | – | – | – |
| CCCCCCCCCO [1-Nonanol] | > 50 µM | > 50 µM | 71% | 46% | 11.8 µM | 16 µM | – | – | – | – | – |
| C=CC(O)CCCCC (stereo not drawn) [1-Octen-3-ol] | > 50 µM | > 50 µM | 86% | 54% | 29.4 µM | 40 µM | – | – | – | – | – |
| CCCCC=O [1-Pentanal] | – | – | 65% | 44% | 11.8 µM | 16 µM | – | – | – | – | Ki (HoblOBP3; HoblOBP3, calculated from IC50 and K1-NPN, read-out: Ki): 26.8 µM; IC50 (HoblOBP3; HoblOBP3, protein and 1-NPN both 2 µM, ligand titrated 2–50 µM, read-out: IC50 (concentration of ligand halving the initial fluorescence intensity)): 41 µM |
| O=C1C=CCCC1 [2-Cyclohexen-1-one] | > 50 µM | > 50 µM | 70% | 49% | 16.9 µM | 23 µM | – | – | – | – | – |
| CC(C)(C)C1CCC(O)CC1 (stereo not drawn) [4-tert-Butyl cyclohexanol] | > 50 µM | > 50 µM | 68% | 49% | 14 µM | 19 µM | – | – | – | – | – |
| CC(=O)CCC=C(C)C [6-Methyl-5-hepten-2-one] | – | – | – | – | – | – | > 50 µM | > 50 µM | 32 µM | 23.5 µM | activity at 24 µM (HoblOBP3; [9]): 78%; activity at 24 µM (HoblOBP4; [9]): 52% |
| CC/C=C\CCOC(C)=O [(Z)-3-Hexenyl acetate] | > 50 µM | > 50 µM | 78% | 56% | 29.4 µM | 40 µM | – | – | – | – | – |
| O=Cc1ccccc1 [Benzaldehyde] | – | – | – | – | – | – | > 50 µM | > 50 µM | 17 µM | 12.5 µM | activity at 24 µM (HoblOBP3; [9]): 68%; activity at 24 µM (HoblOBP4; [9]): 44% |
| O=CCc1ccccc1 [Benzeneacetaldehyde] | > 50 µM | > 50 µM | – | – | – | – | – | – | – | – | IC50 (HoblOBP4; [4]): > 50 µM; Ki (HoblOBP4; [5]): > 50 µM |
| CCCCOC(=O)c1ccccc1 [Butyl Benzoate] | > 50 µM | > 50 µM | 69% | 40% | 8.1 µM | 11 µM | – | – | – | – | – |
| CCCCCCCCCC [Decane] | > 50 µM | > 50 µM | – | – | – | – | – | – | – | – | IC50 (HoblOBP4; [4]): > 50 µM; Ki (HoblOBP4; [5]): > 50 µM |
| CC(C)=CCC/C(C)=C/CO [Geraniol] | – | – | – | – | – | – | > 50 µM | > 50 µM | 16 µM | 11.8 µM | activity at 24 µM (HoblOBP3; [9]): 79%; activity at 24 µM (HoblOBP4; [9]): 44% |
| CCOC(=O)CN [Glycine ethyl ester] | > 50 µM | > 50 µM | 76% | 50% | – | 24 µM | – | – | – | – | – |

| SMILES | IC50 (HoblOBP3; [1]) | Ki (HoblOBP3; [2]) | activity at 24 µM (HoblOBP3; [3]) | activity at 24 µM (HoblOBP4; [6]) | Ki (HoblOBP4; [7]) | IC50 (HoblOBP4; [8]) | IC50 (HoblOBP3) | Ki (HoblOBP3) | IC50 (HoblOBP4) | Ki (HoblOBP4) | further results |
| --- | --- | --- | --- | --- | --- | --- | --- | --- | --- | --- | --- |
| CCCCCCC [Heptane] | – | – | 63% | 43% | – | – | > 50 µM | > 50 µM | 16 µM | 11.8 µM | – |
| CCCCCCOC(=O)c1ccccc1 [Hexyl benzoate] | > 50 µM | > 50 µM | 53% | 36% | 2.9 µM | 4 µM | – | – | – | – | – |
| CC[C@H](C)[C@H](N)C(=O)OC [L-Isoleucine methyl ester] | > 50 µM | > 50 µM | 68% | 49% | 17.7 µM | 24 µM | – | – | – | – | – |
| CCOC(=O)[C@@H]1CCCN1 [L-Proline ethyl ester] | > 50 µM | > 50 µM | – | – | 14.7 µM | 20 µM | – | – | – | – | Int (fluorescence intensity as percent of the initial fluorescence) (HoblOBP3; [10]): 70%; Int (fluorescence intensity as percent of the initial fluorescence) (HoblOBP4; [11]): 47% |
| C=C(C)C1CC=C(C)CC1 (stereo not drawn) [Limonene] | – | – | 56% | 52% | – | – | > 50 µM | > 50 µM | > 50 µM | > 50 µM | – |
| CC(C)[C@@H]1CC[C@@H](C)C[C@H]1OC(=O)c1ccccc1O [Menthyl salicylate] | > 50 µM | > 50 µM | – | – | – | – | – | – | – | – | Int (fluorescence intensity as percent of the initial fluorescence) (HoblOBP3; [10]): 75%; Int (fluorescence intensity as percent of the initial fluorescence) (HoblOBP4; [11]): 54%; IC50 (HoblOBP4; [4]): > 50 µM; Ki (HoblOBP4; [5]): > 50 µM |
| C=CC(=C)CCC=C(C)C [Myrcene] | > 50 µM | > 50 µM | 74% | 56% | – | – | – | – | – | – | IC50 (HoblOBP4; [4]): > 50 µM; Ki (HoblOBP4; [5]): > 50 µM |
| CCCCCCCCC [Nonane] | > 50 µM | > 50 µM | – | – | – | – | – | – | – | – | IC50 (HoblOBP4; [4]): > 50 µM; Ki (HoblOBP4; [5]): > 50 µM |
| CCCCCCCC [Octane] | > 50 µM | > 50 µM | – | – | 18.4 µM | 25 µM | – | – | – | – | activity at 24 µM (HoblOBP3; [9]): 70%; activity at 24 µM (HoblOBP4; [9]): 51% |
| OCCc1ccccc1 [Phenethyl alcohol] | > 50 µM | > 50 µM | 66% | 52% | 20.6 µM | 28 µM | – | – | – | – | – |
| CCCOC(=O)c1ccccc1 [Propyl benzoate] | > 50 µM | > 50 µM | 81% | 48% | 14.7 µM | 20 µM | – | – | – | – | – |
| CC1=CCC(O)(C(C)C)CC1 (stereo not drawn) [Terpinen-4-ol] | – | – | – | – | – | – | > 50 µM | > 50 µM | 21 µM | 15.4 µM | activity at 24 µM (HoblOBP3; [9]): 75%; activity at 24 µM (HoblOBP4; [9]): 48% |
| CCC/C=C\CO [cis-2-Hexen-1-ol] | – | – | 70% | 42% | – | – | > 50 µM | > 50 µM | 14 µM | 10.3 µM | – |
| CC/C=C\CCO [cis-3-Hexen-1-ol] | – | – | – | – | – | – | > 50 µM | > 50 µM | 17 µM | 12.5 µM | activity at 24 µM (HoblOBP3; [9]): 81%; activity at 24 µM (HoblOBP4; [9]): 46% |
| CCC/C=C/C=O [trans-2-Hexenal] | – | – | – | – | – | – | > 50 µM | > 50 µM | 11 µM | 8.1 µM | activity at 24 µM (HoblOBP3; [9]): 74%; activity at 24 µM (HoblOBP4; [9]): 39% |
| CC(=O)/C=C/C1C(C)=CCCC1(C)C (stereo not drawn) [α-Ionone] | – | – | – | – | – | – | 16 µM | 10.4 µM | 19 µM | 14 µM | activity at 24 µM (HoblOBP3; [9]): 41%; activity at 24 µM (HoblOBP4; [9]): 45% |
| C=C1CC/C=C(\C)CC[C@@H]2[C@@H]1CC2(C)C [β-Caryophyllene] | – | – | – | – | – | – | > 50 µM | > 50 µM | > 50 µM | > 50 µM | – |
